2 compounds from ChEMBL document CHEMBL1150621, “Two new triterpenoids from Azadirachta indica and their insecticidal activity” (2002) can be followed below.

The test system of the assay is Anopheles stephensi. The assay is described as follows: Insecticidal activity against fourth instar larvae of Anopheles stephensi assessed as mortality after 24 hrs. The format is functional.

Values after ≈ are worked out from the molar mass of the structure shown.

Turning to `CC(=O)O[C@@H]1[C@H](O)[C@H]2C(C)(C)C(=O)C=C[C@]2(C)[C@H]2CC[C@]3(C)C(=CC[C@H]3C3=COCC3)[C@]12C`, the LC50 came to 60 µg/mL (≈ 132 µM).

`CC(=O)O[C@@H]1[C@H](O)[C@H]2C(C)(C)C(=O)C=C[C@]2(C)[C@H]2CC[C@@]3(C)CC(=O)C=C3[C@]12C`: the LC50 is 43 µg/mL (≈ 107 µM).
